16 molecules from US20100029682A1, “NOVEL CHROMENE AND THIOCHROMENE CARBOXAMIDE DERIVATIVES, METHODS FOR PREPARING SAME AND THERAPEUTIC APPLICATIONS OF SAME” (priority 2006, published 2010) can be followed below.

Where a name gives a salt, the structure may show the parent alone.

Data set [1] has as its target α1-adrenergic receptor. Briefly: inhibition of prazocine[3H] binding in rat brain tissue. On the procedure: (§1) The activity of derivatives of formula 1 as DRD3 ligands, modulators of the activity of DRD3 according to the invention, was evaluated on cells expressing human recombinant DRD3. […] These same compounds show an apparent affinity for the dopamine D2 receptor that is 100 to 500 times weaker. These same compounds have an affinity for the α1 adrenergic receptor that is 20 to 500 times weaker than that for the D3 receptor. The compounds of formula 1 are either antagonists (intrinsic activity<0.10), partial agonists (0.2<intrinsic activity<0.6) or full agonists (intrinsic activity>0.8). The biological results relative to certain compounds of formula 1 are presented in table 2 at the end of the description.

Data set [2] deals with T1, dopamine D2 receptor (Homo sapiens, UniProt P14416).
T1 construct: expressed in transfected cells
Briefly: inhibition of spiperone[3H] binding in CHO cells, dopamine D2 receptor. The following applies: read-out: pKi D2 (converted). How it is done: as §1

Data set [3] has as its target T2, dopamine D3 receptor (Homo sapiens, UniProt P35462).
T2 construct: expressed in transfected cells
Nature of the data set: inhibition of spiperone[3H] binding in CHO cells, dopamine D3 receptor. The conditions noted are these: read-out: pKi D3 (converted). On the procedure: as §1

In data set [4] the target is T3, human recombinant DRD3 (Homo sapiens, UniProt P35462).
T3 construct: expressed in transfected cells
Nature of the data set: intrinsic activity on cells expressing human recombinant DRD3. The data set is classed as cell-based. The following applies: antagonists <0.10, partial agonists 0.2-0.6, full agonists >0.8.
From the text: As used above, the term “D3 receptor partial agonist” denotes a compound that forms a complex with DRD3 and that acts as a combined agonist-antagonist, i.e., it induces a physiological response whose intensity is less than that of the natural mediator, dopamine. In vitro, in a cell expressing DRD3, a DRD3 partial agonist produced an active response whose maximum intensity was lower than that produced by dopamine or a by a full agonist, for example quinpirole[(4aR-trans)-4,4a,5,6,7,8,8a,9 octahydro-5-propyl-1H (or 2H)-pyrazolo(3,4-g)quinoline]. A DRD3 partial agonist can also partially prevent the response produced by dopamine or by its full agonists. In vivo, a DRD3 partial agonist produces dopaminergic responses, particularly when dopamine levels are lowered, as is the case with rats with lesions caused by 6-hydroxydopamine or monkeys injected with 1 methyl-4-phenyl-1,2,3,6-tetrahydropyridine (MPTP). Moreover, a DRD3 partial agonist can act as an antagonist in vivo, particularly when DRD3 is subject to sustained dopamine stimulation.
as §1

T1 sequence (P14416 whole entry, species assumed): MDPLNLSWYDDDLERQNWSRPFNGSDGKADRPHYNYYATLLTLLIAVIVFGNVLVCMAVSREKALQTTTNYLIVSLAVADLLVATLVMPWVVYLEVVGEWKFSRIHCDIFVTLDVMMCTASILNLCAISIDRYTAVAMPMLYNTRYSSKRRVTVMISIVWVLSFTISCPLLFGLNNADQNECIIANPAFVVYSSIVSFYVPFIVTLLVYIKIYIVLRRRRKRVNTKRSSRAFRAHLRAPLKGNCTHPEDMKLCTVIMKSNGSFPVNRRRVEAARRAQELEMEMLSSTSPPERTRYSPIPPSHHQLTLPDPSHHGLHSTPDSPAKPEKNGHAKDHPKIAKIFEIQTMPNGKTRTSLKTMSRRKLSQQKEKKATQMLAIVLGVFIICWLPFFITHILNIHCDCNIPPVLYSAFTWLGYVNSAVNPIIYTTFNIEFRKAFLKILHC
T3 sequence (P35462 whole entry): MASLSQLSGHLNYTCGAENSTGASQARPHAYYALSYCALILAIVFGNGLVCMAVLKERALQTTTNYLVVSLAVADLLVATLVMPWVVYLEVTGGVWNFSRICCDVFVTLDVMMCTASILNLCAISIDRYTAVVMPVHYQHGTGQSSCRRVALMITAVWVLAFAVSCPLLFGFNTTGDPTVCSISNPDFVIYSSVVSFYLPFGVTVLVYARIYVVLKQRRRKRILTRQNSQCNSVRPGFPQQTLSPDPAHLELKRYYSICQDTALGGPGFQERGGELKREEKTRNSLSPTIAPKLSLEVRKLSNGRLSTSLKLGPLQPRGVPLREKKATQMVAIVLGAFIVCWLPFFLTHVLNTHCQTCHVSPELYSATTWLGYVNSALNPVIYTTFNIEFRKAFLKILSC
T2 sequence (P35462 whole entry): as above

For `O=C(NCCCCN1CCN(c2cccc3c2OCCO3)CC1)C1=Cc2ccccc2OC1` [Example 105, 2H-chromene-3-carboxylic acid {4-[4-(2,3-dihydro-benzo[1,4]dioxin-5-yl)-piperazin-1-yl]-butyl}-amide], the “pKi α1” value in data set [1] was 7.81. Further, the figures for the Ki in data set [2] and in data set [3] were 132 nM and 0.603 nM, respectively.

Turning to `O=C(NCCCCN1CCN(c2cccc3[nH]c(=O)oc23)CC1)C1=Cc2ccccc2OC1` [Example 110, 2H-chromene-3-carboxylic acid {4-[4-(2-oxo-2,3-dihydro-benzoxazol-7-yl)-piperazin-1-yl]-butyl}-amide], the “pKi α1” value in data set [1] turned out to be 8.44. Also, the Ki is 7.59 nM in data set [2] and 0.0676 nM in data set [3]. Also, the Intrinsic activity in data set [4] is 0.81.

`CS(=O)(=O)Nc1cccc(N2CCN(CCCCNC(=O)C3=Cc4cc(Cl)ccc4OC3)CC2)c1` [Example 89, 6-chloro-2H-chromene-3-carboxylic acid {4-[4-(3-mesylamino-phenyl}-piperazin-1-yl]-butyl}-amide]: the “pKi α1” value in data set [1] is reported as 6.78. In addition, the Ki in data set [2] was 34.7 nM; in data set [3], 0.219 nM. For the same molecule, the Intrinsic activity in data set [4] is on record as 0.

Turning to `N#Cc1cccc(N2CCN(CCCCNC(=O)C3=Cc4ccccc4SC3)CC2)c1` [Example 35, 2H-Thiochromene-3-carboxylic acid {4-[4-(3-cyanophenyl)-piperazin-1-yl]-butyl}-amide], in data set [1], the “pKi α1” value is 7.32. Moreover, the Ki in data set [2] is 3160 nM; in data set [3] it was 2.4 nM. Also, the Intrinsic activity in data set [4] is 0.18.

In the case of `O=C(NCCCCN1CCN(c2cccc(O)c2)CC1)C1=Cc2ccccc2SC1` [Example 41, 2H-Thiochromene-3-carboxylic acid {4-[4-(3-hydroxyphenyl)-piperazin-1-yl]-butyl}-amide], the “pKi α1” value in data set [1] stood at 7.08. The Ki in data set [2] is 3800 nM; in data set [3], 0.661 nM. Besides, in data set [4], the Intrinsic activity turned out to be 0.64.

For `O=C(NCCCCN1CCN(c2cccc3c2OCC3)CC1)C1=Cc2ccccc2OC1` [Example 111, 2H-chromene-3-carboxylic acid {4-[4-(2,3-dihydro-benzofuran-7-yl)-piperazin-1-yl]-butyl} amide], the “pKi α1” value in data set [1] is 7.84. For the same molecule, the results for the Ki in data set [2] and in data set [3] were 141 nM and 0.676 nM, respectively. Moreover, the Intrinsic activity in data set [4] was 0.26.

With `O=C(NCCCCN1CCN(c2cccc3[nH]ccc23)CC1)C1=Cc2ccccc2OC1` [Example 102, 2H-chromene-3-carboxylic acid {4-[4-(1H-indol-4-yl)-piperazin-1-yl]-butyl}-amide], the “pKi α1” value in data set [1] is reported as 8.05. Further, the Ki was 93.3 nM in data set [2] and 0.219 nM in data set [3]. In addition, the Intrinsic activity in data set [4] came out at 0.59.

For `COc1ccc2c(c1)C=C(C(=O)NCCCCN1CCN(c3ccccc3OC)CC1)CO2` [Example 54, 6-Methoxy-2H-chromene-3-carboxylic acid {4-[4-(2-methoxyphenyl)piperazin-1-yl]-butyl}-amide], the “pKi α1” value in data set [1] is 8.05. Further, the Ki in data set [2] is 417 nM; in data set [3] it was 0.537 nM.

Take `O=C(NCCCCN1CCN(c2cccc(C(F)(F)F)c2)CC1)C1=Cc2ccccc2OC1` [Example 16, 2H-Chromene-3-carboxylic acid {4-[4-(3-trifluoromethylphenyl)-piperazin-1-yl]-butyl}-amide]: the “pKi α1” value in data set [1] was 7.55. The Ki is 447 nM in data set [2] and 2.69 nM in data set [3].

What is called melting point is the temperature of the solid-liquid transition. Molecule `O=C(NCCCCN1CCN(c2cccc(C(F)(F)F)c2)CC1)C1=Cc2ccccc2OC1` (as salt: HCl) [Example 16, 2H-Chromene-3-carboxylic acid {4-[4-(3-trifluoromethylphenyl)-piperazin-1-yl]-butyl}-amide] yielded a melting point of 234 °C.

On to `O=C(NCCCCN1CCN(c2cccc(Cl)c2Cl)CC1)C1=Cc2ccccc2OC1` [Example 2, 2H-Chromene-3-carboxylic acid {4-[4-(2,3-dichlorophenyl)-piperazin-1-yl]-butyl}-amide], for which the “pKi α1” value in data set [1] is on record as 7.29. In addition, the Ki is 123 nM in data set [2] and 0.813 nM in data set [3].

Regarding `COc1ccc2c(c1)C=C(C(=O)NCCCCN1CCN(c3cccc(Cl)c3Cl)CC1)CO2` [Example 55, 6-Methoxy-2H-chromene-3-carboxylic acid {4-[4-(2,3-dichlorophenyl)-piperazin-1-yl]-butyl}-amide], the Ki was 251 nM in data set [2] and 0.794 nM in data set [3].

Molecule `O=C(NCCCCN1CCN(c2cccc(O)c2)CC1)C1=Cc2ccccc2SC1` (as salt: HCl) [Example 41, 2H-Thiochromene-3-carboxylic acid {4-[4-(3-hydroxyphenyl)-piperazin-1-yl]-butyl}-amide] returned a melting point of 182 to 184 °C.

Molecule `COc1ccc2c(c1)C=C(C(=O)NCCCCN1CCN(c3cccc(C#N)c3)CC1)CO2` (as salt: HCl) [Example 57, 6-Methoxy-2H-chromene-3-carboxylic acid {4-[4-(3-cyanophenyl)-piperazin-1-yl]-butyl}-amide] displayed a melting point of 159 °C.

`O=C(NCCCCN1CCN(c2ccccc2O)CC1)C1=Cc2ccccc2OC1` (as salt: HCl) [Example 58, 2H-Chromene-3-carboxylic acid {4-[4-(2-hydroxyphenyl)-piperazin-1-yl]-butyl}-amide] registered a melting point of 189 °C.

The molecule `N#Cc1ccc(N2CCN(CCCCNC(=O)C3=Cc4ccccc4OC3)CC2)cc1` (as salt: HCl) [Example 13, 2H-Chromene-3-carboxylic acid {4-[4-(4-cyanophenyl)piperazin 1-yl]-butyl}-amide] came in with a melting point of 212 °C.
